US20020165213A1, “Estrogen induced neural stem cell increase” (Neurostasis, Inc., priority 2001, published 2002)

Legend:
[1] = test system: embryonic neural stem cells (embryonic day 14); test: Estradiol on embryonic neural stem cell cultures: secondary spheres from one single sphere; type: cell-based
Procedure: (§1) To determine if estradiol, the main form of estrogen, increases the number of neural stem cells, the effect of estradiol on neural stem cell cultures was examined. Primary neural stem cells (from embryonic day 14 or adult subventricular zone) were cultured in EGF for seven days to make neurospheres. These primary neurospheres were then dissociated and re-plated in EGF to make pass 1 neurospheres. Pass 1 neurospheres, either embryonic or adult, were dissociated and plated (50,000 cell/ml) in culture medium containing EGF alone or EGF+4 nM estradiol. The culture was allowed to progress for seven days. To determine the number of neural stem cells in each culture, single spheres (15-20 per experiment) were dissociated and plated in single wells of a 96 well plate in culture medium containing EGF only. After 7 days, the number of spheres which came from one single sphere was counted. The following data represent the results from 15-20 replicates.

[2] = test system: adult neural stem cells (adult subventricular zone); test: Estradiol on adult neural stem cell cultures: secondary spheres from one single sphere; type: cell-based
Procedure: as §1

SVZ proliferating cells = details: literature (Alonso, 2000; Tanapat et al., 1999); cited from earlier work
[3] = test system: proliferating cells in the dentate gyrus; details: literature (Alonso, 2000; Tanapat et al., 1999); cited from earlier work
[4] = EGF+4 nM estradiol versus EGF alone

Compound	increase in the number of embryonic neural stem cells in response to estradiol [1, 4]	# secondary spheres from one single sphere ([1]; Embryo pass 1 neurospheres, EGF+4 nM estradiol, seven days, single spheres re-plated in EGF only, counted after 7 days, 15-20 replicates)	# secondary spheres from one single sphere ([2]; Adult pass 1 neurospheres, EGF+4 nM estradiol, seven days, single spheres re-plated in EGF only, counted after 7 days, 15-20 replicates)	increase in the number of adult neural stem cells in response to estradiol [2, 4]	cell proliferation / mitotic activity in the SVZ (SVZ proliferating cells)	cell proliferation in the dentate gyrus [3]
C[C@]12CC[C@@H]3c4ccc(O)cc4CC[C@H]3[C@@H]1CC[C@@H]2O [estradiol]	150%	104±15	78±11	35%		
C[C@]12C[C@H](O)[C@H]3[C@@H](CCC4=CC(=O)CC[C@@]43C)[C@@H]1CC[C@@H]2C(=O)CO [corticosterone]					no effect	dramatically decreases cell proliferation
Estrogen					no mitotic activity	stimulate proliferation
